Data published in patent publication US20250145633A1, “SUBSTITUTED FURANOPYRIMIDINE COMPOUNDS AS PDE1 INHIBITORS” (Dart NeuroScience, LLC, priority 2017, published 2025).

Target: human PDE1B enzyme (Homo sapiens (Human), UniProt Q01064)
Test: IMAP TR-FRET PDE1B enzymatic assay
Type: biochemical
Details: negative log of half-maximal molar inhibitory concentration, 200 nM FAM-cAMP, values given as bins; for IC50: read-out: PDE1b (pIC50) (converted)
Outline: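 Full-length GST-tagged human PDE1B (250 pg/well) in IMAP BSA buffer with 10 U/ml calmodulin and 2.5 mM CaCl2; compound pre-incubated 5 min at room temperature, then 200 nM (final) FAM-cAMP for 30 min. IMAP binding reagent/Tb added, 1 h; TR-FRET 520/490 ratio read. IC50 from sigmoidal dose-response fit.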

SMILES | IC50 [µM] | PDE1b (pIC50)
Cc1oc2ncnc(NC3(C)CC3)c2c1C(=O)NCc1nc2ccc(F)cc2n1C [Example 725, N-[(6-Fluoro-1-methyl-1H-1,3-benzodiazol-2-yl)methyl]-6-methyl-4-[(1-methylcyclopropyl)amino]furo[2,3-d]pyrimidine-5-carboxamide] | 0.01 to 0.1 | –
CCc1nccc(CNC(=O)c2c(C)oc3ncnc(NC4(C)CC4)c23)n1 [Example 726, N-[(2-Ethylpyrimidin-4-yl)methyl]-6-methyl-4-[(1-methylcyclopropyl)amino]furo[2,3-d]pyrimidine-5-carboxamide] | 0.01 to 0.1 | –
Cc1oc2ncnc(NC3(C)CC3)c2c1C(=O)Nc1ccc(C2CCOCC2)cn1 [Example 727, 6-Methyl-4-[(1-methylcyclopropyl)amino]-N-[5-(oxan-4-yl)pyridin-2-yl]furo[2,3-d]pyrimidine-5-carboxamide] | 0.01 to 0.1 | –
Cc1nc(CNC(=O)c2c(C)oc3ncnc(NC4(C)CC4)c23)oc1C [Example 728, N-[(Dimethyl-1,3-oxazol-2-yl)methyl]-6-methyl-4-[(1-methylcyclopropyl)amino]furo[2,3-d]pyrimidine-5-carboxamide] | 0.01 to 0.1 | –
Cc1oc2ncnc(NC3(C)CC3)c2c1C(=O)NCc1nc2cc(F)ccc2[nH]1 [Example 729, N-[(5-Fluoro-1H-1,3-benzodiazol-2-yl)methyl]-6-methyl-4-[(1-methylcyclopropyl)amino]furo[2,3-d]pyrimidine-5-carboxamide] | 0.01 to 0.1 | –
Cc1oc2ncnc(NC3(C)CC3)c2c1C(=O)NCCc1nc2cc(F)ccc2o1 [Example 730, N-[2-(5-Fluoro-1,3-benzoxazol-2-yl)ethyl]-6-methyl-4-[(1-methylcyclopropyl)amino]furo[2,3-d]pyrimidine-5-carboxamide] | 0.01 to 0.1 | –
COc1cnc(CNC(=O)c2c(C)oc3ncnc(NC4(C)CC4)c23)cn1 [Example 731, N-[(5-Methoxypyrazin-2-yl)methyl]-6-methyl-4-[(1-methylcyclopropyl)amino]furo[2,3-d]pyrimidine-5-carboxamide] | 0.01 to 0.1 | –
Cc1oc2ncnc(NC3(C)CC3)c2c1C(=O)NCc1cnc(C2CC2)cn1 [Example 732, N-[(5-Cyclopropylpyrazin-2-yl)methyl]-6-methyl-4-[(1-methylcyclopropyl)amino]furo[2,3-d]pyrimidine-5-carboxamide] | 0.01 to 0.1 | –
Cc1oc2ncnc(NC3(C)CC3)c2c1C(=O)NCc1nc2cc(F)ccc2n1C [Example 733, N-[(5-Fluoro-1-methyl-1H-1,3-benzodiazol-2-yl)methyl]-6-methyl-4-[(1-methylcyclopropyl)amino]furo[2,3-d]pyrimidine-5-carboxamide] | 0.01 to 0.1 | –
Cc1oc2ncnc(NC3(C)CC3)c2c1C(=O)NCCc1nc2cc(F)ccc2n1C [Example 734, N-[2-(5-Fluoro-1-methyl-1H-1,3-benzodiazol-2-yl)ethyl]-6-methyl-4-[(1-methylcyclopropyl)amino]furo[2,3-d]pyrimidine-5-carboxamide] | 0.01 to 0.1 | –
Cc1oc2ncnc(NC3(C)CC3)c2c1C(=O)Nc1ccc(C2CCOCC2)nc1 [Example 735, 6-Methyl-4-[(1-methylcyclopropyl)amino]-N-[6-(oxan-4-yl)pyridin-3-yl]furo[2,3-d]pyrimidine-5-carboxamide] | 0.1 to 1 | –
Cc1oc2ncnc(NC3(C)CC3)c2c1C(=O)Nc1cnc(C2CCOCC2)cn1 [Example 736, 6-Methyl-4-[(1-methylcyclopropyl)amino]-N-[5-(oxan-4-yl)pyrazin-2-yl]furo[2,3-d]pyrimidine-5-carboxamide] | 0.01 to 0.1 | –
Cc1oc2ncnc(NC3(C)CC3)c2c1C(=O)NCc1cccc(N2CCOCC2)n1 [Example 737, 6-Methyl-4-[(1-methylcyclopropyl)amino]-N-{[6-(morpholin-4-yl)pyridin-2-yl]methyl}furo[2,3-d]pyrimidine-5-carboxamide] | 0.01 to 0.1 | –
Cc1oc2ncnc(NC3(C)CC3)c2c1C(=O)NCc1nnn(C)n1 [Example 738, 6-Methyl-N-[(2-methyl-2H-1,2,3,4-tetrazol-5-yl)methyl]-4-[(1-methylcyclopropyl)amino]furo[2,3-d]pyrimidine-5-carboxamide] | 0.01 to 0.1 | –
Cc1oc2ncnc(NC3(C)CC3)c2c1C(=O)NCc1csc(N2CCOCC2)n1 [Example 739, 6-Methyl-4-[(1-methylcyclopropyl)amino]-N-{[2-(morpholin-4-yl)-1,3-thiazol-4-yl]methyl}furo[2,3-d]pyrimidine-5-carboxamide] | 0.01 to 0.1 | –
Cc1oc2ncnc(NC3(C)CC3)c2c1C(=O)NCc1cnn(C)n1 [Example 740, 6-Methyl-N-[(2-methyl-2H-1,2,3-triazol-4-yl)methyl]-4-[(1-methylcyclopropyl)amino]furo[2,3-d]pyrimidine-5-carboxamide] | 0.01 to 0.1 | –
Cc1oc2ncnc(NC3(C)CC3)c2c1C(=O)NCc1ncn(C)n1 [Example 741, 6-Methyl-N-[(1-methyl-1H-1,2,4-triazol-3-yl)methyl]-4-[(1-methylcyclopropyl)amino]furo[2,3-d]pyrimidine-5-carboxamide] | 0.01 to 0.1 | –

SMILES | IC50 [µM] | PDE1b (pIC50)
Cc1oc2ncnc(NC3(C)CC3)c2c1C(=O)N1Cc2cc(Br)cnc2C1 [Example 742, 5-{3-Bromo-5H,6H,7H-pyrrolo[3,4-b]pyridine-6-carbonyl}-6-methyl-N-(1-methylcyclopropyl)furo[2,3-d]pyrimidin-4-amine] | 0.01 to 0.1 | –
Cc1ncc(CNC(=O)c2c(C)oc3ncnc(NC4(C)CC4)c23)s1 [Example 743, 6-Methyl-N-[(2-methyl-1,3-thiazol-5-yl)methyl]-4-[(1-methylcyclopropyl)amino]furo[2,3-d]pyrimidine-5-carboxamide] | – | >8
Cc1ncc(CNC(=O)c2c(C)oc3ncnc(NC4(C)CC4)c23)o1 [Example 744, 6-Methyl-N-[(2-methyl-1,3-oxazol-5-yl)methyl]-4-[(1-methylcyclopropyl)amino]furo[2,3-d]pyrimidine-5-carboxamide] | 0.01 to 0.1 | –
Cc1oc2ncnc(NC3(C)CC3)c2c1C(=O)NCc1ccc(N2CCOCC2)nn1 [Example 745, 6-Methyl-4-[(1-methylcyclopropyl)amino]-N-{[6-(morpholin-4-yl)pyridazin-3-yl]methyl}furo[2,3-d]pyrimidine-5-carboxamide] | 0.01 to 0.1 | –
Cc1oc2ncnc(NC3(C)CC3)c2c1C(=O)NCC1CC1 [Example 746, N-(Cyclopropylmethyl)-6-methyl-4-[(1-methylcyclopropyl)amino]furo[2,3-d]pyrimidine-5-carboxamide] | 0.01 to 0.1 | –
Cc1nc(CNC(=O)c2c(C)oc3ncnc(NC4(C)CC4)c23)co1 [Example 747, 6-Methyl-N-[(2-methyl-1,3-oxazol-4-yl)methyl]-4-[(1-methylcyclopropyl)amino]furo[2,3-d]pyrimidine-5-carboxamide] | 0.01 to 0.1 | –
Cc1oc2ncnc(NC3(C)CC3)c2c1C(=O)N1Cc2cc(C3CCOCC3)cnc2C1 [Example 748, 6-Methyl-N-(1-methylcyclopropyl)-5-[3-(oxan-4-yl)-5H,6H,7H-pyrrolo[3,4-b]pyridine-6-carbonyl]furo[2,3-d]pyrimidin-4-amine] | 0.1 to 1 | –
Cc1oc2ncnc(NC3(C)CC3)c2c1C(=O)NC(C)c1ncco1 (stereo not shown) [Example 749, 6-Methyl-4-[(1-methylcyclopropyl)amino]-N-[1-(1,3-oxazol-2-yl)ethyl]furo[2,3-d]pyrimidine-5-carboxamide] | 0.1 to 1 | –
Cc1oc2ncnc(NC3(C)CC3)c2c1C(=O)NC(C)c1ccon1 (stereo not shown) [Example 750, 6-Methyl-4-[(1-methylcyclopropyl)amino]-N-[1-(1,2-oxazol-3-yl)ethyl]furo[2,3-d]pyrimidine-5-carboxamide] | 0.01 to 0.1 | –
Cc1oc2ncnc(NC3(C)CC3)c2c1C(=O)NCc1nc2cc(F)ccc2o1 [Example 751, N-[(5-Fluoro-1,3-benzoxazol-2-yl)methyl]-6-methyl-4-[(1-methylcyclopropyl)amino]furo[2,3-d]pyrimidine-5-carboxamide] | – | >8
Cc1oc2ncnc(NC3(C)CC3)c2c1C(=O)NCCCN1CCCC1 [Example 752, 6-Methyl-4-[(1-methylcyclopropyl)amino]-N-[3-(pyrrolidin-1-yl)propyl]furo[2,3-d]pyrimidine-5-carboxamide] | – | <6
Cc1oc2ncnc(NC3(C)CC3)c2c1C(=O)Nc1ccc(N2CCOCC2)nc1 [Example 753, 6-Methyl-4-[(1-methylcyclopropyl)amino]-N-[6-(morpholin-4-yl)pyridin-3-yl]furo[2,3-d]pyrimidine-5-carboxamide] | 0.1 to 1 | –
Cc1oc2ncnc(NC3(C)CC3)c2c1C(=O)NCCC(F)(F)F [Example 754, 6-Methyl-4-[(1-methylcyclopropyl)amino]-N-(3,3,3-trifluoropropyl)furo[2,3-d]pyrimidine-5-carboxamide] | 0.01 to 0.1 | –
Cc1oc2ncnc(NC3(C)CC3)c2c1C(=O)NCC1CC1(F)F (stereo not shown) [Example 755, N-[(2,2-Difluorocyclopropyl)methyl]-6-methyl-4-[(1-methylcyclopropyl)amino]furo[2,3-d]pyrimidine-5-carboxamide] | 0.01 to 0.1 | –
Cc1oc2ncnc(NC3(C)CC3)c2c1C(=O)NCCN=S(C)(C)=O [Example 756, N-(2-{[Dimethyl(oxo)-λ^6-sulfanylidene]amino}ethyl)-6-methyl-4-[(1-methylcyclopropyl)amino]furo[2,3-d]pyrimidine-5-carboxamide] | 0.1 to 1 | –
Cc1oc2ncnc(NC3(C)CC3)c2c1C(=O)Nc1cnc(N2C[C@@H](C)O[C@@H](C)C2)nc1 [Example 759, N-{2-[(2R,6S)-2,6-Dimethylmorpholin-4-yl]pyrimidin-5-yl}-6-methyl-4-[(1-methylcyclopropyl)amino]furo[2,3-d]pyrimidine-5-carboxamide] | 0.1 to 1 | –
Cc1coc(CNC(=O)c2c(C)oc3ncnc(NC4(C)CC4)c23)n1 [Example 760, 6-Methyl-N-[(4-methyl-1,3-oxazol-2-yl)methyl]-4-[(1-methylcyclopropyl)amino]furo[2,3-d]pyrimidin-5-carboxamide] | 0.01 to 0.1 | –
